Activity calls are given as the source filed them. The rule behind the calls is not given here.
Biological target: Cystic fibrosis transmembrane conductance regulator (Homo sapiens) (UniProt P13569)
Experiment: Corrector activity at human CFTR deltaF508 mutant expressed in FRT cells assessed as iodide influx at 25 uM
Assay type: cell-based

Cystic fibrosis transmembrane conductance regulator (Homo sapiens), sequence (P13569 whole entry, looked up): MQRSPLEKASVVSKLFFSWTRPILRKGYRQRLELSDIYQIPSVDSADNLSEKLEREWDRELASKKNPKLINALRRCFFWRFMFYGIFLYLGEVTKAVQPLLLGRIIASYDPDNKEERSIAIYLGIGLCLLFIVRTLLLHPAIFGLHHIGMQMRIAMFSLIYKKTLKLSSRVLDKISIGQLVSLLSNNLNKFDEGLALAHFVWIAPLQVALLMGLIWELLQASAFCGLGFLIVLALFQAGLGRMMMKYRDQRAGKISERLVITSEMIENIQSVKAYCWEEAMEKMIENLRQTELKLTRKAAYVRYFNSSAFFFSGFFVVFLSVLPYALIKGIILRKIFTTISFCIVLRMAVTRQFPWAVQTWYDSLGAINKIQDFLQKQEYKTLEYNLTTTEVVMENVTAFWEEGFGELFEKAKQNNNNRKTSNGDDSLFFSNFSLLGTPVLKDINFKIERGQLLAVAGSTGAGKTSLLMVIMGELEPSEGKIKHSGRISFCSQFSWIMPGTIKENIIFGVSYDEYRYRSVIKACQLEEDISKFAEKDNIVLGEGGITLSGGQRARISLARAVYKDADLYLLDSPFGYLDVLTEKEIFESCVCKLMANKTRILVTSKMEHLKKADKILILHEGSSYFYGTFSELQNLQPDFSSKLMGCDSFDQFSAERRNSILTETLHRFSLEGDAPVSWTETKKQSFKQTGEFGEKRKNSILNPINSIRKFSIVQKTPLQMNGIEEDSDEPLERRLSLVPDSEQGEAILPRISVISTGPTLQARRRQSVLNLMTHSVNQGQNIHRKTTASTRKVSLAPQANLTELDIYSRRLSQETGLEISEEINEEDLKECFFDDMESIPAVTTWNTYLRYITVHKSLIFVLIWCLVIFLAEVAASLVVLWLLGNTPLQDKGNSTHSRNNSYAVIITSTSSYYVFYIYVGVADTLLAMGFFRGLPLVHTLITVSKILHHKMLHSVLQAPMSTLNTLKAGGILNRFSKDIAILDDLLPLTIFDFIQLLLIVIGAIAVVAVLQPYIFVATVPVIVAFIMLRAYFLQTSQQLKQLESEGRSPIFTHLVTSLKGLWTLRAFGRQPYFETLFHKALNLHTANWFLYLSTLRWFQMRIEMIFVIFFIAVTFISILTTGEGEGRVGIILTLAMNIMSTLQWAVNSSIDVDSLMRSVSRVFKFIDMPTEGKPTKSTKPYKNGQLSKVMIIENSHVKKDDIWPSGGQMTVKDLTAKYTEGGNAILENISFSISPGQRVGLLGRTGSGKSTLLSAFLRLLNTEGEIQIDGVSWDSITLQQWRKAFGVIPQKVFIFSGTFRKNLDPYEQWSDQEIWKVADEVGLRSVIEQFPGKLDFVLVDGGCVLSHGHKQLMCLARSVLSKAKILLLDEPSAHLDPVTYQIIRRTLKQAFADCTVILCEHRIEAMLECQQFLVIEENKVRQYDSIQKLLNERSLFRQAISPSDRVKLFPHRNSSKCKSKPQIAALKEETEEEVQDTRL

SMILES	Activity
COc1ccc(Cl)cc1Nc1nc(C)c(-c2csc(NC(=O)C(C)(C)C)n2)s1	inactive
COc1ccc(Cl)cc1Nc1nc(-c2cccc(NC(=O)C(C)(C)C)c2)c(C)s1	inactive
COc1ccc(Cl)cc1Nc1nc(-c2cccc(NC(=O)C(C)(C)C)c2)cs1	inactive

Other lines, results leading:

Activity	SMILES
Active	COc1ccc(Cl)cc1Nc1nc2c(s1)CCCc1nc(NC(=O)C(C)(C)C)sc1-2
Active	COc1ccc(Cl)cc1Nc1nc(-c2sc(NC(=O)C(C)(C)C)nc2C)cs1
Active	COc1ccc(Cl)cc1Nc1nc(-c2cnc(NC(=O)C(C)(C)C)s2)cs1

From ChEMBL document CHEMBL1140116, “Potent s-cis-locked bithiazole correctors of DeltaF508 cystic fibrosis transmembrane conductance regulator cellular processing for cystic fibrosis therapy” (J Med Chem, 2008)
